In brackets after ≈: the same amount, converted by molar mass. Where two headings read alike, the source gives them in different places.
Columns and labels:
Type in all cases: physicochemical
[1] = measured log P of branaplam
[2] = phase solubility of branaplam in 2-hydroxypropyl-beta-cyclodextrin solutions; conditions: room temperature
[3] = solubility of branaplam in selected excipients; conditions: pH 4, aqueous with cosolvent or surfactant or cyclodextrin, thermodynamic from solid
Protocol: (§1) Solubility of branaplam was evaluated in excipients, other than cyclodextrin, such as Cremophor RH40, Tween 80, PG, PEG300, and glycerol. These excipients and concentrations were selected as they are suitable for paediatric formulations. None of the tested excipients was able to support development of a formulation comprising branaplam at a concentration high enough (i.e. about 2 mg/ml or higher) to keep the dose volume in a suitable range (Table 6).
as §1, with “5a).” for “6).”
Solubility of branaplam was measured as follows: stock solutions for the excipients at target concentrations were prepared using milli-Q water and adjusted using pH 4.0 buffer. […] Suspensions were stirred for 24 hours (using a magnetic stirrer) ensuring sufficient swirling and monitoring the temperature. The suspensions were filtered through 0.45 μm nominal pore size filter (e.g. using a PES syringe), and the concentration of branaplam in the filtrate was measured using HPLC (high performance liquid chromatography). The measurements were performed in duplicate and average of the values are reported.

For CC1(C)CC(Oc2ccc(-c3ccc(-c4cn[nH]c4)cc3O)nn2)CC(C)(C)N1 [branaplam, 5-(1H-pyrazol-4-yl)-2-(6-((2,2,6,6-tetramethylpiperidin-4-yl)oxy)pyridazin-3-yl)phenol], the logP [1] was 2.6, the “branaplam dissolved using 17.5% HP-b-CD” value [2] was “about 10 mg/mL” and the solubility at 24 h ([3]; 2 °C, in Cremophor RH 40 15.0% (w/v), pH 4.0 buffer, 2-8° C., read-out: Solubility (mg/mL) 2-8° C.) was 1.19 mg/mL (≈ 3020 µM). It also gave a solubility at 24 h ([3]; 25 °C, in Cremophor RH 40 15.0% (w/v), pH 4.0 buffer, RT, read-out: Solubility (mg/mL) RT) of 1.32 mg/mL (≈ 3350 µM), a solubility at 24 h ([3]; Cremophor RH 40 1.0% (w/v) aqueous solution in pH 4.0 buffer, 2 °C, in Cremophor RH 40 1.0% (w/v), pH 4.0 buffer, 2-8° C., read-out: Solubility (mg/mL) 2-8° C.) of 0.17 mg/mL (≈ 432 µM) and a solubility at 24 h ([3]; Cremophor RH 40 1.0% (w/v) aqueous solution in pH 4.0 buffer, 25 °C, in Cremophor RH 40 1.0% (w/v), pH 4.0 buffer, RT, read-out: Solubility (mg/mL) RT) of 0.28 mg/mL (≈ 712 µM). It also gave a solubility at 24 h ([3]; Cremophor RH 40 3.5% (w/v) aqueous solution in pH 4.0 buffer, 2 °C, in Cremophor RH 40 3.5% (w/v), pH 4.0 buffer, 2-8° C., read-out: Solubility (mg/mL) 2-8° C.) of 0.44 mg/mL (≈ 1120 µM), a solubility at 24 h ([3]; Cremophor RH 40 3.5% (w/v) aqueous solution in pH 4.0 buffer, 25 °C, in Cremophor RH 40 3.5% (w/v), pH 4.0 buffer, RT, read-out: Solubility (mg/mL) RT) of 0.53 mg/mL (≈ 1350 µM) and a solubility at 24 h ([3]; Cremophor RH 40 7.0% (w/v) aqueous solution in pH 4.0 buffer, 2 °C, in Cremophor RH 40 7.0% (w/v), pH 4.0 buffer, 2-8° C., read-out: Solubility (mg/mL) 2-8° C.) of 0.71 mg/mL (≈ 1800 µM). It also gave a solubility at 24 h ([3]; Cremophor RH 40 7.0% (w/v) aqueous solution in pH 4.0 buffer, 25 °C, in Cremophor RH 40 7.0% (w/v), pH 4.0 buffer, RT, read-out: Solubility (mg/mL) RT) of 0.84 mg/mL (≈ 2130 µM), a solubility at 24 h ([3]; aqueous excipient solution, 2 °C, in Glycerol 5.0% (w/w), 2-8° C., read-out: Solubility (mg/mL) 2-8° C.) of 0.2 mg/mL (≈ 508 µM) and a solubility at 24 h ([3]; aqueous excipient solution, 2 °C, in Glycerol 10.0% (w/w), 2-8° C., read-out: Solubility (mg/mL) 2-8° C.) of 0.19 mg/mL (≈ 483 µM). It also gave a solubility at 24 h ([3]; aqueous excipient solution, 2 °C, in PEG 300 5.0% (w/w), 2-8° C., read-out: Solubility (mg/mL) 2-8° C.) of 0.27 mg/mL (≈ 686 µM), a solubility at 24 h ([3]; aqueous excipient solution, 2 °C, in PEG 300 10.0% (w/w), 2-8° C., read-out: Solubility (mg/mL) 2-8° C.) of 0.34 mg/mL (≈ 864 µM) and a solubility at 24 h ([3]; aqueous excipient solution, 2 °C, in PEG 300 25.0% (w/w), 2-8° C., read-out: Solubility (mg/mL) 2-8° C.) of 0.87 mg/mL (≈ 2210 µM). For the same compound, the solubility at 24 h ([3]; aqueous excipient solution, 2 °C, in PEG 400 5.0% (w/w), 2-8° C., read-out: Solubility (mg/mL) 2-8° C.) was 0.21 mg/mL (≈ 534 µM), the solubility at 24 h ([3]; aqueous excipient solution, 2 °C, in PEG 400 10.0% (w/w), 2-8° C., read-out: Solubility (mg/mL) 2-8° C.) was 0.45 mg/mL (≈ 1140 µM) and the solubility at 24 h ([3]; aqueous excipient solution, 2 °C, in PEG 400 25.0% (w/w), 2-8° C., read-out: Solubility (mg/mL) 2-8° C.) was 0.93 mg/mL (≈ 2360 µM). For the same compound, the solubility at 24 h ([3]; aqueous excipient solution, 2 °C, in Propylene glycol 5.0% (w/w), 2-8° C., read-out: Solubility (mg/mL) 2-8° C.) was 0.16 mg/mL (≈ 407 µM), the solubility at 24 h ([3]; aqueous excipient solution, 2 °C, in Propylene glycol 10.0% (w/w), 2-8° C., read-out: Solubility (mg/mL) 2-8° C.) was 0.18 mg/mL (≈ 457 µM) and the solubility at 24 h ([3]; aqueous excipient solution, 2 °C, in Propylene glycol 25.0% (w/w), 2-8° C., read-out: Solubility (mg/mL) 2-8° C.) was 0.42 mg/mL (≈ 1070 µM). It also gave a solubility at 24 h ([3]; aqueous excipient solution, 2 °C, in Tween 80 0.5% (w/w), 2-8° C., read-out: Solubility (mg/mL) 2-8° C.) of 0.16 mg/mL (≈ 407 µM), a solubility at 24 h ([3]; aqueous excipient solution, 2 °C, in Tween 80 0.8% (w/w), 2-8° C., read-out: Solubility (mg/mL) 2-8° C.) of 0.22 mg/mL (≈ 559 µM) and a solubility at 24 h ([3]; aqueous excipient solution, 2 °C, in Tween 80 1.5% (w/w), 2-8° C., read-out: Solubility (mg/mL) 2-8° C.) of 0.29 mg/mL (≈ 737 µM). For the same compound, the solubility at 24 h ([3]; aqueous excipient solution, 2 °C, in Tween 80 5.0% (w/w), 2-8° C., read-out: Solubility (mg/mL) 2-8° C.) was 0.73 mg/mL (≈ 1860 µM), the solubility at 24 h ([3]; aqueous excipient solution, 25 °C, in Glycerol 5.0% (w/w), RT, read-out: Solubility (mg/mL) RT) was 0.18 mg/mL (≈ 457 µM) and the solubility at 24 h ([3]; aqueous excipient solution, 25 °C, in Glycerol 10.0% (w/w), RT, read-out: Solubility (mg/mL) RT) was 0.22 mg/mL (≈ 559 µM). The solubility at 24 h ([3]; aqueous excipient solution, 25 °C, in PEG 300 5.0% (w/w), RT, read-out: Solubility (mg/mL) RT) was 0.39 mg/mL (≈ 991 µM), the solubility at 24 h ([3]; aqueous excipient solution, 25 °C, in PEG 300 10.0% (w/w), RT, read-out: Solubility (mg/mL) RT) was 0.64 mg/mL (≈ 1630 µM) and the solubility at 24 h ([3]; aqueous excipient solution, 25 °C, in PEG 300 25.0% (w/w), RT, read-out: Solubility (mg/mL) RT) was 1.61 mg/mL (≈ 4090 µM). For the same compound, the solubility at 24 h ([3]; aqueous excipient solution, 25 °C, in PEG 400 5.0% (w/w), RT, read-out: Solubility (mg/mL) RT) was 0.39 mg/mL (≈ 991 µM), the solubility at 24 h ([3]; aqueous excipient solution, 25 °C, in PEG 400 10.0% (w/w), RT, read-out: Solubility (mg/mL) RT) was 0.63 mg/mL (≈ 1600 µM) and the solubility at 24 h ([3]; aqueous excipient solution, 25 °C, in PEG 400 25.0% (w/w), RT, read-out: Solubility (mg/mL) RT) was 1.47 mg/mL (≈ 3740 µM). The solubility at 24 h ([3]; aqueous excipient solution, 25 °C, in Propylene glycol 5.0% (w/w), RT, read-out: Solubility (mg/mL) RT) was 0.27 mg/mL (≈ 686 µM), the solubility at 24 h ([3]; aqueous excipient solution, 25 °C, in Propylene glycol 10.0% (w/w), RT, read-out: Solubility (mg/mL) RT) was 0.37 mg/mL (≈ 940 µM) and the solubility at 24 h ([3]; aqueous excipient solution, 25 °C, in Propylene glycol 25.0% (w/w), RT, read-out: Solubility (mg/mL) RT) was 0.94 mg/mL (≈ 2390 µM). The solubility at 24 h ([3]; aqueous excipient solution, 25 °C, in Tween 80 0.5% (w/w), RT, read-out: Solubility (mg/mL) RT) was 0.25 mg/mL (≈ 635 µM), the solubility at 24 h ([3]; aqueous excipient solution, 25 °C, in Tween 80 0.8% (w/w), RT, read-out: Solubility (mg/mL) RT) was 0.28 mg/mL (≈ 712 µM) and the solubility at 24 h ([3]; aqueous excipient solution, 25 °C, in Tween 80 1.5% (w/w), RT, read-out: Solubility (mg/mL) RT) was 0.41 mg/mL (≈ 1040 µM). It also gave a solubility at 24 h ([3]; aqueous excipient solution, 25 °C, in Tween 80 5.0% (w/w), RT, read-out: Solubility (mg/mL) RT) of 0.89 mg/mL (≈ 2260 µM), a solubility at 24 h ([3]; aqueous excipient stock solution, 2 °C, in Cremophor RH 40 1.0% (w/w), 2-8° C., read-out: Solubility (mg/mL) 2-8° C.) of 0.17 mg/mL (≈ 432 µM) and a solubility at 24 h ([3]; aqueous excipient stock solution, 2 °C, in Cremophor RH 40 3.5% (w/w), 2-8° C., read-out: Solubility (mg/mL) 2-8° C.) of 0.44 mg/mL (≈ 1120 µM).
